Results as given in patent publication EP4104829A1 (priority 2021, dated 2022).
Read-outs that look alike come from different tables or passages of the source.

Experiments:
SARS-CoV-2 (MAD-6) [1] = test: microbe, parasite or virus in culture; format: cell-based; conditions: Severe acute respiratory syndrome coronavirus 2, Vero C1008
HCoV-229E-GFP [2] = test system: HCoV-229E-GFP
SARS-CoV-2 = test: microbe, parasite or virus in culture; format: cell-based; conditions: for IC50: Severe acute respiratory syndrome coronavirus 2, Vero C1008
SARS-CoV-2 (MAD-6) [3] = test: microbe, parasite or virus in culture; format: cell-based; conditions: Severe acute respiratory syndrome coronavirus 2, Caco-2
[4] = Cell viability by MTT assay (cytotoxicity), Huh-7; conditions: human, Huh-7 cells
HCoV-229E-GFP [5] = format: cell-based
[6] = Cell viability by MTT assay (cytotoxicity), Caco-2; conditions: human, Caco-2 cells
[7] = test system: foot-and-mouth disease virus (FMDV); conditions: cited from earlier work
FMDV = conditions: mouse, in vivo, 100 mg/kg; cited from earlier work
HCoV-229E-GFP [8] = test: organism not typed; format: cell-based
HCoV-229E-GFP [9] = format: cell-based; remark: listed apart in the source
[10] = Cell viability by MTT assay (cytotoxicity), Vero-E6; conditions: African green monkey, Vero-E6 cells

With CCCCCCCCCCCCOC(=O)c1cc(O)c(O)c(O)c1 [LG, Lauryl Gallate] the IC50 (SARS-CoV-2 (MAD-6) [1]) was 1.28 µM, the “direct virucidal effect on the virus particle” value (HCoV-229E-GFP [2]) was “No direct toxicity” and the SI (SARS-CoV-2) was 70,9. For the same compound, the IC50 (SARS-CoV-2) was 1.22 µM, the IC50 (SARS-CoV-2 (MAD-6) [3]) was 2.98 µM and the CC50 at 24 h [4] was 83.1 µM. The IC50 (HCoV-229E-GFP [5]) was 2.05 µM, the CC50 at 24 h [6] was 97.1 µM and the “reduction of the virus productivity” value [7] was “up to 2 log.u”. The “direct virucidal effect on the virus particle” value (SARS-CoV-2 MAD-6) was “No direct toxicity”, the clinical signs (FMDV) was “reduction” and the mortality (FMDV) was “reduction”. The “viral RNA copies in different tissues” value (FMDV) was “reduction”, the “reduction of the HCoV-229E-GFP infection” value (HCoV-229E-GFP [8]) was “up to 2 log.u” and the “decrease in the HCoV-229E-GFP yield” value (HCoV-229E-GFP [9]) was “more than 2 log.u”. The CC50 at 24 h [10] was 90.1 µM.

For CCCCCCCCOC(=O)c1cc(O)c(O)c(O)c1 [OG, octyl gallate], the “inhibition of FMDV production” value [7] is listed as “totally ineffective”, the “reduction of the HCoV-229E-GFP infection” value (HCoV-229E-GFP [8]) is listed as “up to 2 log.u” and the IC50 (HCoV-229E-GFP [8]; Huh-7) is listed as 6.21 µM.

For CCCOC(=O)c1cc(O)c(O)c(O)c1 [PG, propyl gallate], the “inhibition of FMDV production” value [7] is given as “totally ineffective” and the virus inhibition (HCoV-229E-GFP [8]) is given as “unable to produce virus inhibition”.

With O=C(O[C@@H]1Cc2c(O)cc(O)cc2O[C@@H]1c1ccc(O)c(O)c1)c1cc(O)c(O)c(O)c1 [epicatechin gallate] the SI (SARS-CoV-2) was 5,8 and the IC50 (SARS-CoV-2) was 50.1 µM.

In the case of O=C(O)c1cc(O)c(O)c(O)c1 [gallic acid], the SI (SARS-CoV-2) is given as 6,2, the IC50 (SARS-CoV-2) is given as 40.3 µM and the “inhibition of FMDV production” value [7] is given as “totally ineffective”. The virus inhibition (HCoV-229E-GFP [8]) was “unable to produce virus inhibition”.
